Patent US6566401B2, “N-acetylcysteine compositions and methods for the treatment and prevention of drug toxicity” (The Board of Trustees of the Leland Stanford Junior …, priority 2001, dated 2003)

Legend:
[1] = cited from earlier work
[2] = NAC treatment of subjects taking AZT: hematologic toxicity; assay type: in vivo, human; conditions: HIV disease
Source text: Results have shown that acetaminophen usage, which lowers glutathione levels exacerbates AZT toxicity. Richman, et al. (1987) N. Eng. J. Med. 317: 192-97. De Rosa et al. recently have shown that treatment with NAC which increases glutathione levels decreases the toxicity. De Rosa et al., submitted to JAMA for publication.
It appears that NAC provides cysteine needed to redress the excessive sulfur loss that occurs in HIV disease and specifically to replenish intracellular glutathione. […] This decreases the AZT-mediated inhibition of erythroid development, helps to improve the overall metabolism and stability of erythrocytes and their progenitors (for example, by enabling optimal functioning of the glucose-6-phosphate dehydrogenase and other energy-supplying pathways). In addition, it improves the cell's ability to withstand the production of oxidants induced by the introduction of drugs (such as AZT) and the internal production of molecules (such as TNF and HIV-TAT) that trigger intracellular oxidant production.

[3] = effects counter to those reported for NAC; cited from earlier work

Row | SMILES | half-cell potential for the NAC thiol/disulfide pair [1] | effect of NAC treatment on AZT's hematologic toxicity [2] | bioactive dose relative to NAC (fold less than NAC) [3]
1 | CC(=O)N[C@@H](CS)C(=O)O [NAC, N-acetylcysteine] | about +63 mV | decreases AZT's hematologic toxicity | –
2 | CC(=O)N[C@@H](CSSC[C@H](NC(C)=O)C(=O)O)C(=O)O [oxidized form of NAC, di-n-acetylcysteine] | – | – | 10-100 fold
